ChEMBL document CHEMBL1149095, “Structure-based optimization of novel azepane derivatives as PKB inhibitors” (J Med Chem, 2004)

Tests used:
[1] = Half life in mice plasma; format: ADME, organism-based; conditions: mouse
[2] = biological target: RAC-alpha serine/threonine-protein kinase (Homo sapiens, UniProt P31749); experiment: Inhibition of Protein kinase B alpha
[3] = biological target: cAMP-dependent protein kinase A (Bos taurus, UniProt P00515+P00517+P05131+P31322); experiment: Inhibition of bovine protein kinase A (PKA); format: protein-complex assay

Sequence of RAC-alpha serine/threonine-protein kinase (P31749 whole entry): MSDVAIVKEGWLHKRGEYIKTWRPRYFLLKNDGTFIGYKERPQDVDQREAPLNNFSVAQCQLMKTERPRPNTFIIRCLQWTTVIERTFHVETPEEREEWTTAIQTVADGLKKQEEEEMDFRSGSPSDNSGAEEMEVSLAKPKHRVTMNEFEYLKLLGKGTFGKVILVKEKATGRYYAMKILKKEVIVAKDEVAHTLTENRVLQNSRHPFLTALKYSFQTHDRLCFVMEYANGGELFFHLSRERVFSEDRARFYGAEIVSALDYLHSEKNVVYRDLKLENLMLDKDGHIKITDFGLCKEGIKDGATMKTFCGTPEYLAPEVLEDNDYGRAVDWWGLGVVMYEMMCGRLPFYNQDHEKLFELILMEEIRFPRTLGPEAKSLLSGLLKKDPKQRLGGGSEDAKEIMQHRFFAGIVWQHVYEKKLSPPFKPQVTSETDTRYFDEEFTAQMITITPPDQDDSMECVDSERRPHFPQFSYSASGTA

With `COc1ccc(O)c(C(=O)c2ccc(C(=O)O[C@@H]3CCCNCC3NC(=O)c3ccncc3)cc2)c1F.Cl.Cl` (stereo not given in full) the half-life [1] was < 0.0167 h.

For `COc1ccc(O)c(C(=O)c2ccc(C(=O)N[C@@H]3CCCNCC3NC(=O)c3ccncc3)cc2)c1F.Cl.Cl` (stereo not given in full), the half-life [1] was 69 h.

With `COc1ccc(O)c(C(=O)c2ccc(CN[C@@H]3CCCNC[C@H]3NC(=O)c3ccncc3)cc2)c1F.Cl` the half-life [1] was 161 h, the IC50 [2] was 3000 nM and the IC50 [3] was 800 nM.

With `COc1ccc(O)c(C(=O)c2ccc(CO[C@@H]3CCCNCC3NC(=O)c3ccncc3)cc2)c1F.Cl.Cl` (stereo not given in full) the half-life [1] was 29 h and the IC50 [2] was 355 nM.

Compound `COc1ccc(O)c(C(=O)c2ccc(NC[C@@H]3CCCNCC3NC(=O)c3ccncc3)cc2)c1F` (stereo not given in full) has an IC50 [2] of 25000 nM and an IC50 [3] of 45000 nM.

Compound `COc1ccc(O)c(C(=O)c2ccc(/C=C/[C@@H]3CCCNC[C@H]3NC(=O)c3ccncc3)cc2)c1F` has an IC50 [2] of 160 nM.
